Data: patent US8779158B2, “Trisubstituted pyrazoles as acetylcholine receptor modulators” (Janssen Pharmaceutica NV, priority 2008, dated 2014)
pEC50: −log10 of the molar value.

How the values were obtained:
[1] = biological target: T1, hα7-wt nAChR (Homo sapiens, UniProt P36544); test: Ca2+ flux imaging (FDSS) (Protocol B), potentiation of the choline response; type: cell-based; settings: Ca2+ assay as described in D.1; for pEC50: "<5" = activity did not reach a top plateau at maximal concentration; for Emax: read-out: % Efficacy
T1 construct: expressed in transfected cells
Experimental: Ca^2+ Flux Imaging (FDSS) (Protocol B)
• Hanks buffered saline solution (HBSS, Invitrogen, Belgium), supplemented with 10 mM HEPES (Invitrogen, Belgium), CaCl2 to a final concentration of 5 mM, 0.1% Bovine serum albumin (Sigma-Aldrich NV, Belgium). b) Calcium-Sensitive Dye—Fluo-4AM • Fluo-4AM (Molecular Probes, USA) was dissolved in DMSO containing 10% Pluronic acid (Molecular Probes, USA) to give a stock solution which was diluted in assay buffer supplemented with 5 mM probenicid (Sigma, Aldrich NV, Belgium) to give a final concentration of 2 μM. c) 384-Well Plates • Black 384 well plate black/clear plates, PDL pre-coated (Corning, Incorporated, USA) d) Calcium Flux Measurement • A Functional drug screening system (FDSS, Hamamatsu) was used to measure intracellular free-calcium flux signals. Method
Monolayers of hα7-wt nAChR-expressing cells were grown in multi-well plates, in particular black-sided, transparent bottomed 384 well plates coated with poly-D-lysine for 24 hours prior to loading with a fluorescent calcium indicator, in a particular embodiment loading with fluo-4AM for up to 120 minutes.
PAM activity was detected in real time by applying the compounds to be tested to the loaded cells along with a α7 nicotinic receptor agonist during constant monitoring of cellular fluorescence in a FDSS. Compounds giving peak fluorescent responses greater than the response due to agonist alone, were considered to be α7 nAChR PAM's. In a particular embodiment, the α7 nicotinic receptor agonist was choline, a more particular embodiment choline applied at a sub-maximal concentration of 100 μM. In a further setting of the present invention the compounds to be tested were applied prior to the α7 nicotinic receptor agonist, in a particular embodiment up to 10 minutes prior to the agonist.
A control response to choline was calculated on each plate from the difference in peak in fluorescence in wells receiving either choline or assay buffer alone. Compounds of the present invention were tested at a concentration range from 0.01 μM to 30 μM. Compounds were considered to have an interesting activity when they potentiated the choline signal at least with 200% when tested at a concentration of 30 μM (the efficacy of 100 μM choline was defined as 100% in the absence of a PAM). An EC50 (or pEC50) was determined as a concentration relating to half the maximal effect, when a clear sigmoidal curve with top plateau was obtained.

[2] = biological target: T2, hα7-wt nAChR-expressing GH4C1 cells (Homo sapiens, UniProt P36544); test: Patch-clamp current recording (whole-cell voltage clamp), potentiation of the choline current and PAM type; type: cell-based; parameters: key: Type 0 compounds minimally enhance the effect size of the current elicited by 1 mM choline.; Type 1 compounds enhance the effect size of the current elicited by 1 mM choline but minimally alter the kinetics of the receptor.; Type 2 compounds enhance the effect size of the current elicited by 1 mM choline while reducing the rate and/or the extent of desensitization.; Type 3 compounds enhance the effect size of the current elicited by 1 mM choline. When tested at higher concentrations up to 10 μM they completely inhibit desensitization, in particular a 1 mM choline application of 250 milliseconds.; Type 4 compounds allow for an initial desensitization of the receptor followed by a re-opening of the receptor during agonist application; settings: 1 mM choline
T2 construct: expressed in transfected cells
Experimental: The compounds of the present invention are classified as type 1-4, based on qualitative kinetic properties, as determined by whole-cell voltage-clamp recordings. This classification is based on the effect of an α7 PAM compound, as described hereinbefore, on the signal elicited by an agonist application. In particular, said agonist is choline at a concentration of 1 mM. In a preferred experimental setting, said α7 PAM compound and choline are simultaneously applied to the cell, as described hereinafter. Desensitization is defined as the closure of the receptor upon activation during the application of the agonist in whole-cell voltage-clamp electrophysiology measurements seen as the reduction of the […] current after initial activation by the agonist.
The definition of the PAM types 1-4 is described hereinafter: • Type 0 compounds minimally enhance the effect size of the current elicited by 1 mM choline. • Type 1 compounds enhance the effect size of the current elicited by 1 mM choline but minimally alter the kinetics of the receptor. In particular, the rate and the extent of desensitization, elicited by the agonist, is not affected. The compound-modulated response to 1 mM choline, therefore, is a close to linear scaling of the 1 mM choline response in absence of the α7 PAM compound. • Type 2 compounds enhance the effect size of the current elicited by 1 mM choline while reducing the rate and/or the extent of desensitization. • Type 3 compounds enhance the effect size of the current elicited by 1 mM choline. […] At low-potency concentrations of the α7 PAM compound, the agonist-induced activation, which is followed by desensitization, can still be separated from the compound-induced re-opening as an initial inward current-maximum. At higher potency concentrations of the α7 PAM compound, the re-opening occurs faster than the closure due to desensitization so that the initial current-maximum disappears.
A compound was considered to have interesting PAM-like activity when the potentiation of the peak current was at least 200% compared to the control choline response (=100%). Such compounds are classified as belonging to a particular PAM type in the Experimental Part. Compounds not meeting the condition are not classified as belonging to a particular PAM-type.
The compounds also have a potentiating effect on the response to choline when measured by whole-cell patch clamp electrophysiology in GH4C1 cells stably over-expressing the human wild-type α7 receptor.
Patch-Clamp Current Recording
Patch-clamp recording from mammalian cells has provided a powerful means of assessing the function of membrane-bound proteins thought to be subunits of ligand-gated ion channels. Activation of such proteins by endogenous or exogenous ligands cause opening of a pore associated with the receptor through which ions flow down their electrochemical gradient. In the case of the hα7-wt nAChR-expressing GH4C1 recombinant cell line the preferential permeability to calcium of this receptor means that calcium flows into the cell upon activation by ACh, choline and other nicotinic ligands giving rise to a calcium current. Since this receptor rapidly desensitizes in the presence of agonist it is important an application system is used which is capable of very rapid switching of solutions (<100 ms) to prevent partial or full desensitisation of receptor responses coincident with the time of agonist application. Consequently, a second convenient technique to assess the enhancement of nicotinic efficacy is patch-clamp recording from hα7-wt nAChR-expressing GH4C1 cells coupled with a rapid-application system.
• The external recording solution consisted of 152 mM NaCl, 5 mM KCl, 1 mM MgCl2, 1 mM Calcium, 10 mM HEPES; pH 7.3. […]

T2 sequence (P36544 23-502): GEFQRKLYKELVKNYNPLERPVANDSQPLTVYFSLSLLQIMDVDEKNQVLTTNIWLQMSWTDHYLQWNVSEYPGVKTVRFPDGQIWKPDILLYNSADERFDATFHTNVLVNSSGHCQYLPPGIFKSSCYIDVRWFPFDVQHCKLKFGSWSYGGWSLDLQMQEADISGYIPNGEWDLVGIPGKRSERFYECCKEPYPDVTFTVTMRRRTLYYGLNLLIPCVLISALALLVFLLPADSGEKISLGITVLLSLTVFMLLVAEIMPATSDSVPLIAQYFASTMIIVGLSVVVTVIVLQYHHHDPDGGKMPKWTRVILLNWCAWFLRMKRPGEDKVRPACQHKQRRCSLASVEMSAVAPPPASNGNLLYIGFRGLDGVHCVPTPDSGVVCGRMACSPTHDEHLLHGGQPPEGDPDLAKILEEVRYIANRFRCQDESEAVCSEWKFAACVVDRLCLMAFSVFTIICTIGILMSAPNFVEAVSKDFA
T1 sequence (P36544 23-502): as above

Row | Compound | pEC50 [1] | PAM type [2] | Emax [1]
1 | CCNC(=O)Cn1nc(Nc2ccc(F)c(C(F)(F)F)c2)cc1-c1ccnc(C)c1 [compound 38] | 6.24 | 2 | 
2 | Cc1cc(-c2cc(Nc3ccc4c(c3)OC(F)(F)O4)nn2CCC(=O)N(C)C)cc(C)n1 [compound 157] | 6.44 | 2 | 503%
3 | Cc1ccnc(-c2cc(Nc3ccc(F)c(F)c3)nn2CCC(=O)N(C)C)c1 [compound 22] | 5.61 | 2 | 
4 | COc1cc(Cl)cc(Nc2cc(-c3ccnc(C)c3)n(CCC(=O)N(C)C)n2)c1 [compound 126] | 6.04 | 2 | 
5 | CNC(=O)Cn1nc(Nc2ccc(F)c(F)c2F)cc1-c1ccnc(C)c1 [compound 107] | 5.73 | 2 | 907%
6 | CC[C@H](O)Cn1nc(Nc2ccc(F)c(F)c2)cc1-c1ccnc(C)c1 [compound 45] | 5.91 | 1 | 800%
7 | CNC(=O)Cn1nc(Nc2cccc(OC(F)(F)F)c2)cc1-c1ccnc(C)c1 [compound 35] | 5.61 | 2 | 
8 | CCNC(=O)Cn1nc(Nc2ccc3c(c2)OC(F)(F)O3)cc1-c1ccncc1C [compound 91] | 5.58 | 2 | 
9 | COc1ccc(-c2cc(Nc3ccc(F)c(F)c3)nn2CCC(=O)N(C)C)cc1 [compound 102] | 7.11 | 4 | 
10 | Cc1cc(-c2cc(Nc3cccc(Cl)c3)nn2CCC(=O)N(C)C)cc(C)n1 [compound 56] | 6.28 | 2 | 
11 | CCNC(=O)Cn1nc(Nc2ccc(F)c(C(F)(F)F)c2)cc1-c1ccc(C)nc1 [compound 27] | 5.94 | 2 | 
12 | CNC(=O)Cn1nc(Nc2cccc(C(F)(F)F)c2)cc1-c1ccnc(C)c1 [compound 32] | 5.37 | 2 | 
13 | Cc1cc(-c2cc(Nc3ccc4c(c3)OC(F)(F)O4)nn2CCC(=O)N(C)C)ccn1 [compound 94] | 6.62 | 2 | 
14 | CCNc1cc(-c2cc(Nc3ccc(F)c(F)c3)nn2C[C@@H](O)CC)ccn1 [compound 65] | 6.24 | 2 | 1000%
15 | Cc1cc(-c2cc(Nc3ccc4c(c3)OC(F)(F)O4)nn2CC(=O)NC2CC2)cc(C)n1 [compound 145] | 6.32 | 2 | 736%
16 | Cc1cc(-c2cc(Nc3cccc(Cl)c3)nn2CCC(=O)N(C)C)ccn1 [compound 146] | 6.35 | 2 | 
17 | CCNC(=O)Cn1nc(Nc2cccc(Cl)c2)cc1-c1ccnc(C)c1 [compound 111] | 5.77 | 2 | 
18 | Cc1cc(-c2cc(Nc3cccc(Cl)c3F)nn2CCC(=O)N(C)C)cc(C)n1 [compound 173] | 6.87 | 1 | 401%
19 | CC[C@H](O)Cn1nc(Nc2cc(OC)cc(C(F)(F)F)c2)cc1-c1ccnc(C)c1C [compound 53] | 5.97 | 0 | 482%

Row | Compound | pEC50 [1] | PAM type [2] | Emax [1]
20 | Cc1cnccc1-c1cc(Nc2cc(F)cc(C(F)(F)F)c2)nn1CCC(=O)N(C)C [compound 9, 3-[[3-fluoro-5-(trifluoromethyl)phenyl]amino]-N,N-dimethyl-5-(3-methyl-4-pyridinyl)-1H-pyrazole-1-propanamide] | 5.99 | 4 | 
21 | CCNC(=O)Cn1nc(Nc2ccc3c(c2)OC(F)(F)O3)cc1-c1cc(C)nc(C)c1 [compound 153] | 6.38 | 2 | 737%
22 | CN(C)C(=O)CCn1nc(Nc2ccc(F)c(F)c2)cc1-c1ccncc1 [compound 21] | 5.91 | 3 | 
23 | Cc1ccnc(-c2cc(Nc3cc(F)cc(F)c3)nn2CCC(=O)N(C)C)c1 [compound 26] | 5.56 |  | 800%
24 | CCNC(=O)Cn1nc(Nc2ccc(F)c(F)c2)cc1-c1cccnc1 [compound 16] | < 5.00 |  | 
25 | COc1cc(Nc2cc(-c3cc(C)nc(C)c3)n(CC(=O)NC3CCC3)n2)cc(C(F)(F)F)c1 [compound 162] | 6.36 |  | 750%
26 | Cc1cc(-c2cc(Nc3cccc(OC(F)(F)F)c3)nn2CC(=O)NC2CCC2)cc(C)n1 [compound 180] | 6.43 |  | 768%
27 | CNC(=O)Cn1nc(Nc2cc(OC)cc(C(F)(F)F)c2)cc1-c1cc(C)nc(C)c1 [compound 105] | 5.50 |  | 
28 | CNC(=O)Cn1nc(Nc2cc(F)c(F)c(F)c2)cc1-c1ccnc(C)c1 [compound 109] | 5.75 |  | 559%
29 | COc1cc(Nc2cc(-c3cc(C)nc(C)c3)n(CC(=O)NC3CC3)n2)cc(C(F)(F)F)c1 [compound 138] | 6.21 |  | 686%
30 | Cc1cc(-c2cc(Nc3cccc(C(F)(F)F)c3)nn2CCC(=O)N(C)C)cc(C)n1 [compound 178] | 6.26 |  | 627%
31 | Cc1cc(-c2cc(Nc3cc(F)c(F)c(F)c3)nn2C[C@H](C)O)ccn1 [compound 44] | 5.91 |  | 400%
32 | CNC(=O)Cn1nc(Nc2ccc(F)c(F)c2F)cc1-c1cc(C)nc(C)c1 [compound 120] | 5.94 |  | 969%
33 | CCNc1cc(-c2cc(Nc3cc(F)cc(C(F)(F)F)c3)nn2C[C@H](C)O)ccn1 [compound 64] | 5.85 |  | 500%
34 | Cc1cc(-c2cc(Nc3ccc(F)c(F)c3F)nn2CC(=O)NC2CC2)cc(C)n1 [compound 156] | 6.42 |  | 975%
35 | Cc1cc(-c2cc(Nc3cccc(C(F)(F)F)c3)nn2CC(=O)NC2CC2)cc(C)n1 [compound 150] | 6.28 |  | 568%
36 | Cc1cc(-c2cc(Nc3cccc(Cl)c3F)nn2CC(=O)NC2CCC2)cc(C)n1 [compound 175] | 6.90 |  | 462%
37 | CCNc1cc(-c2cc(Nc3ccc(F)c(F)c3)nn2C[C@H](C)O)cc(C)n1 [compound 66] | < 5.00 |  | 
